Reference: US8476255B2, “Histone deacetylase inhibitors” (Orchid Chemicals & Pharmaceuticals Limited, priority 2007, dated 2013)

What was measured:
Format in all cases: cell-based
[1] = system: NCIH460, HCT116 and U251 cells; test: Anti-cancer screen, mean GI50 over cell lines; details: mean over cell lines; read-out: Cell growth inhibition Mean GI50
Summary of the method: (§1)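 An MTT readout (absorbance at 570 nm) measured growth after 48 h of treatment at five final concentrations, 0.01–100 μM, each in triplicate. A T0 plate read at the time of dosing served as baseline. Cultures were in DMEM plus 10% FBS and pre-incubated 24 h at 37° C., with SAHA as the reference drug.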

[2] = system: acetylated Tubulin; test: Tubulin acetylation, sandwich ELISA in HCT116 lysate; details: HCT116, 4 hours
Protocol: Acetylated histone (H3), acetylated Tubulin and p21 levels were detected in cell lysate by sandwich ELISA method (Cell Signaling Technology, USA, Cat No: 7232, 7204 & 7167 respectively) by following manufacturer's instructions. Briefly, colon cancer cells (HCT116. 10,000/well) were incubated with test compound (1 and 10 μM) or medium (control) for 4 hours at 37° C. in CO2 incubator. The incubation lasted 18 hours for p21 induction. After incubation, cell lysates were prepared in cell lysis buffer by sonication on ice. The lysates were collected after centrifugation and subjected to ELISA test procedure. 100 μL of each diluted cell lysate in dilution buffer (1:1) was added to appropriate capture antibody coated microwells and incubated overnight at 4° C. After washing, 100 μL of detection antibody was added for 1 hour at 37° C. After second washing, 100 μL of HRP-linked secondary antibody was added for 30 min at 37° C. Finally, after appropriate washing, 100 μL of TMB substrate was added for 10 min at 37° C. followed by 100 μL of stop solution. The absorbance of individual wells was read using a spectrophotometer at 450 nm (A450).

[3] = system: HCT 116 (colon) cells; test: Anti-cancer screen (MTT), HCT 116; details: Homo sapiens, HCT-116, HCT116, 48 hours, MTT
Summary of the method: as §1

[4] = system: U251 (glioma) cells; test: Anti-cancer screen (MTT), U251; details: Homo sapiens, U-251, U251, 48 hours, MTT
Summary of the method: as §1

Structure (SMILES): COc1ccc(/C=C(/C(=O)NCc2ccc(C(=O)Nc3ccccc3N)cc2)c2ccc(F)cc2)cc1OC [Compound 19, N-(2-Aminophenyl)-4-((3-(3,4-dimethoxyphenyl)-2-(4-fluorophenyl)acrylamido)methyl)benzamide]
- GI50 [1]: 1000 nM
- Tubulin acetylation (Fold increase) ([2]; 1 μM): 1.9 Fold increase
- Tubulin acetylation (Fold increase) ([2]; 10 μM): 4.4 Fold increase
- GI50 ([3]; read-out: Cell growth inhibition HCT116 (Colon) GI50): 300 nM
- CC50 ([3]; read-out: Cell growth inhibition HCT116 (Colon) LC50): 58000 nM
- IC (TGI) ([3]; read-out: Cell growth inhibition HCT116 (Colon) TGI): 5000 nM
- GI50 ([4]; read-out: Cell growth inhibition U251 (Glioma) GI50): 300 nM
- LC50 (concentration giving 50% net cell kill relative to the time-zero cell count) ([4]; read-out: Cell growth inhibition U251 (Glioma) LC50): 4800 nM
- IC (TGI) ([4]; read-out: Cell growth inhibition U251 (Glioma) TGI): 1800 nM
